Measurements reported in patent US12390470B2, “1-methylxanthine-based bioactive composition and method of use thereof” (Ingenious Ingredients, LP, priority 2021, dated 2025).
Values joined by “and” are separate entries in the source; they are usually repeats but may differ in a detail not shown here. Equal entries are not always repeated.

Tests used:
male Swiss Albino mice = assay: Forced swim test; assay type: in vivo
Description: (§1) Twenty-four 8-week-old male Swiss Albino mice were housed in an animal room at a constant temperature (22±3° C.) and humidity (30%-70%) under a 12:12 h light-dark cycle with standard laboratory diet (Purina 5L79, Rat and Mouse 18% protein; PMI Nutrition International, Brentwood, MO, USA). Distilled water was provided ad libitum. All animal experiments were reviewed and approved by the Institutional Animal Ethical Committee (IAEC) of Radiant Research Services Pvt. Ltd (Bangalore, India). All research was conducted in accordance with the guidelines of the committee for the purpose of control and supervision of experiments on animals.
After one week of acclimation, the animals were randomly divided by body weight into three groups (n=8 per group in each test) for oral treatment once a day, at approximately same time each day (±1 hour), for 28 consecutive days: (1) vehicle control or (2) 1-methylxanthine or (3) 1-methylxanthine plus paraxanthine. The dose administered to the mice was calculated using US Food and Drug Administration for human equivalence doses (HED), assuming a human weight of 60 kg. The following HED was used in this study: 100 mg 1-methylxanthine (Ingenious Ingredients, L.P Lewisville, TX, USA; mouse dose: 20.5 mg/kg bw/day), or 100 mg 1-methylxanthine (Ingenious Ingredients, L.P Lewisville, TX, USA; mouse dose: 20.5 mg/kg bw/day) plus 100 mg paraxanthine (ENFINITY™, Ingenious Ingredients, L.P Lewisville, TX, USA; mouse dose: 20.5 mg/kg bw/day). 0.5% Carboxy Methyl Cellulose sodium was used as vehicle and the test item formulations were prepared daily. Dosing was conducted via oral gavage using disposable polypropylene syringes with sterilized stainless steel gavage tubes. Food intake was monitored daily while water intake was ad libitum.
During treatment period, training was accomplished on a swimming chamber at a moderate room temperature for 15 mins. The animals were adapted to this procedure daily 1 hr after dosing for 5 days in a week during the treatment period. On 28th day of respective treatment of all the animals were subjected to force swim test. Animals were forced to swim individually for 30 min in a glass jar of height 20 cm, diameter 10 cm, and filled with fresh water to a depth of 15 cm at room temperature. The parameters measured were first occurrence of climbing (the period the animal tries to climb the wall of the chamber), duration of immobility (the total time during which the animal is immobile) and total time spent in active swimming (the total duration during which the animal swims throughout the experimental period).

glutathione = assay: Glutathione level in young and old rats; assay type: in vivo
Description: as §1, with “young (6-8 Week) and twenty-four old (14-16 Months)” for “8-week-old male”, “Wistar rats” for “mice”
After one week of acclimation, the animals were randomly divided by body weight and age into six groups (n=8 per group in each test) for oral treatment once a day, at approximately same time each day (±1 hour), for 10 consecutive days: (1) vehicle control or (2) 1-methylxanthine or (3) 1-methylxanthine plus paraxanthine. The dose administered to the rat was calculated using US Food and Drug Administration for human equivalence doses (HED), assuming a human weight of 60 kg. […] Food intake was monitored daily while water intake was ad libitum. […] Body weight was recorded weekly. […]

participants = assay: Resting energy expenditure, placebo-controlled crossover; assay type: in vivo, human
Description: Two participants were assigned in a randomized, double-blind, placebo-controlled, crossover fashion to ingest a non-energetic placebo (maltodextrin) or a 200 mg dose of 1-methylxanthine (1-MX). All supplements were orally ingested with 8 fluid ounces of cold tap water. Resting Energy Expenditure was measured at baseline, 30, 60, 90, 120 and 180 minutes after ingestion.

Cn1c(=O)[nH]c2nc[nH]c2c1=O [1-methylxanthine, 1-Methyl-3H-purine-2,6-dione]
Duration of immobility (male Swiss Albino mice; 30 min forced swim, day 28): 9.74 ± 0.79 min
duration of mobility/active swimming (male Swiss Albino mice; 30 min forced swim, day 28): 20.26 ± 0.79 min
number of climbing (male Swiss Albino mice; forced swim, day 28): 6.7±1.16
Duration of immobility lower compared to control (male Swiss Albino mice; mouse, in vivo): 5.4%
duration of mobility/active swimming greater compared to control (male Swiss Albino mice; mouse, in vivo): 2.8%
number of climbing improved compared to control (male Swiss Albino mice; mouse, in vivo): 6.0%
Overall outcome on energy, endurance, mood (male Swiss Albino mice; summary): showed improved energy and endurance, improved mood
glutathione levels (glutathione; old rats): 25.29 ± 0.93 µg/mL
glutathione levels (glutathione; young rats, listed as 1-MX): 28.57 ± 1.36 µg/mL and 28.57 ± 1.65 µg/mL
Resting Energy Expenditure MEAN (participants; Average): 1,897 kcals/day
Resting Energy Expenditure MEAN (participants; Person one): 2,006 kcals/day
Resting Energy Expenditure (participants; Person one, 30 min): 2050 kcals/day
Resting Energy Expenditure (participants; Person one, 60 min): 1975 kcals/day
Resting Energy Expenditure (participants; Person one, 90 min): 1988 kcals/day
Resting Energy Expenditure (participants; Person one, 120 min): 1964 kcals/day
Resting Energy Expenditure (participants; Person one, 180 min): 2053 kcals/day
Resting Energy Expenditure (participants; Person one, time 0, 200 mg oral): 2017 kcals/day
Resting Energy Expenditure MEAN (participants; Person two): 1,788 kcals/day
Resting Energy Expenditure (participants; Person two, 30 min): 1789 kcals/day
Resting Energy Expenditure (participants; Person two, 60 min): 1790 kcals/day
Resting Energy Expenditure (participants; Person two, 90 min): 1777 kcals/day
Resting Energy Expenditure (participants; Person two, 120 min): 1912 kcals/day
Resting Energy Expenditure (participants; Person two, 180 min): 1670 kcals/day
Resting Energy Expenditure (participants; Person two, time 0, 200 mg oral): 1769 kcals/day
